Data published in US20060159676A1, “Methods for modulating angiogenesis, lymphangiogenesis, and apoptosis with apelin compositions” (priority 2005, published 2006).

Columns and labels:
[1] = system: mouse endothelial cells (bEnd3); experiment: bEnd3 endothelial cell proliferation (BrdU incorporation); assay type: cell-based; details: apelin 10 ng/ml or VEGF 50 ng/ml; 0.1 ng/ml to 1 μg/ml (FIG. 17)
Description: Similar cellular proliferation assays were performed using mouse endothelial cells (bEnd3) that constitutively express APJ. […] SU1498 was included in proliferation cultures at a 25 μM concentration, and results were assayed using BrdU incorporation.
Proliferation inhibition experiments with the bEnd3 cells also were carried out using FGF (50 ng/ml) or the FGF pathway inhibitor SU5402 (FIG. 19). SU5402 was included in proliferation cultures at a 20 μM concentration, and results were assayed using BrdU incorporation.

[2] = system: SVEC cells (lymphatic endothelial cell line SVEC4-10); details: apelin 10 ng/ml, overnight serum starve, 8 hours of treatment
Description: Cell migration assays as described above were performed with SVEC cells. Apelin was provided at a concentration of 10 ng/ml, and VEGF-C was provided at a concentration of 100 ng/ml.

BAE/APJ#2 cells = details: 10 ng/ml in bottom chamber, 16 hours
Description: Bovine aortic endothelial cells (BAE) were cultured in DMEM supplemented with 10% fetal bovine serum (FBS) and penicillin/streptomycin. For generation of stable cell lines expressing APJ, the mouse APJ coding region was cloned into the pcDNA 3.1 vector downstream of the CMV promoter, in frame with a myc epitope at the C-terminal end of the protein, and upstream of the neomycin gene. Bovine aortic endothelial (BAE) cells were transfected with this construction using the Superfect transfection kit (Qiagen) and selected for resistance to G418 (600 μg/ml). Colonies were isolated and screened using RT-PCR for expression of mouse APJ and also by immunocytochemistry for expression of the myc epitope.
Cell migration assays were performed using Transwell cell culture migration chambers (Becton Dickinson) with 8 micron pore size. BAE/APJ#2 cells were plated in serum free conditions in 100 μl at a concentration of 1×10^5 ml in the upper chamber of the migration chamber. Following cell attachment to the membrane, 10 ng/ml of growth factor was added to the bottom chamber, in a total volume of 0.5 ml. […] Cells attached to the membrane in the lower chamber were stained with DAPI, and 3 random fields were counted for each experimental condition.

[3] = system: lymphatic endothelial cells; experiment: In vivo lymphatic cell number assay, quail CAM (Prox1 staining); details: collagen disk with 50 ng apelin or 100 ng VEGF-C on CAM of 7 day quail embryos, 18 hours
Description: All experiments were carried out using chorioallantoic membranes (CAMs) of quail embryos. Quail embryos used for the lymphatic experiments were 7 days old. Collagen purified from rat tails (Bernanke and Markwald, 1982) was polymerized in 2 mm disks at a final concentration of approximately 1.6 mg/ml in standard phosphate buffered saline (PBS). The total volume of the collagen disk was approximately 10 μl. For experimental treatments, the collagen disks were supplemented with either 50 ng of apelin peptide or 100 ng of VEGF-C protein prior to polymerization at 37° C. for 30 minutes. The VEGF-C was a positive control for these experiments. (Recombinant Human VEGF-C (Cys156Ser), R&D Systems, cat # 752-vc). Apelin peptide was synthesized by Sigma-Genosys (>90% purity). […]
The samples were incubated with primary antibody (Prox1, Research Diagnostics, cat # RDI-102PA30, diluted to 2 μg/ml final concentration) for 4 hours at room temperature or overnight at 4° C. […] Both the lymphatic cell number as well as the number of lymphatic branches were determined.
Assays for lymphatic cell number were carried out in areas of the CAM that were close to the location of the collagen disk as described above. Since Prox1 specifically stains lymphatic endothelial cell nuclei, the number of cells in the lymphatic branches was counted directly. […]

VEGF mRNA expression = details: apelin-soaked bead, frog embryo
Description: Beads were microsurgically implanted in an avascular region, the posterior lateral mesoderm, of stage 24-26 embryos. Embryos were cultured in 0.2× MMR until stage 35-37, at which time they were prepared for whole mount in situ hybridization analysis as described in Example 2. The embryonic vascular system was visualized using an antisense probe directed against transcripts encoding the Xenopus vascular marker, erg (Baltzinger et al., 1999, Dev. Dyn. 216:420-33).

endothelial cells = details: apelin 10 ng/ml, after 48 hours serum starvation; VEGF 50 ng/ml as comparison
Description: To determine what effect, if any, apelin expression has on apoptosis, TUNEL assays were performed. […] Cells were stained with a DAPI stain (FIG. 21, Panels A, B, and C) or in the TUNEL assay which stains for broken DNA, indicating cells undergoing apoptosis (FIG. 21, Panels D, E, and F).

Substance: Apelin-13
- cellular proliferation of endothelial cells [1]: induces the cellular proliferation of endothelial cells
- lymphatic endothelial cell migration [2]: chemotactic agent for lymphatic endothelial cells
- endothelial cell migration (cells per field) (BAE/APJ#2 cells): promotes endothelial cell migration
- lymphatic cell number (Prox1 positive nuclei) [3]: mitogenic factor for lymphatic endothelial cells
- VEGF expression in the vicinity of the bead (VEGF mRNA expression): no upregulation of VEGF expression
- apoptosis (TUNEL staining) (endothelial cells): anti-apoptotic effect on endothelial cells, to the same extent as VEGF
